Measured values from patent US20090042726A1, “Novel Herbicides” (SYNGENTA LIMITED, priority 2005, published 2009).

Key:
[1] = tested on: Monocotyledonous and dicotyledonous test plants; assay: Herbicidal action, application pre-emergence (Example B1); assay type: in vivo; design: key: 10=total damage to plant; 0=no damage to plant; conditions: 1000 g/ha, evaluated after 9 or 13 days; for AGSTE herbicidal action (damage score 0-10): Agrostis-tenius; for AMARE herbicidal action (damage score 0-10): Amaranthus retroflexus; for DIGSA herbicidal action (damage score 0-10): Digitaria sanguinalis; for POATR herbicidal action (damage score 0-10): Poa trivialis; for SETIT herbicidal action (damage score 0-10): Setaria italica
In short: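 Seeds sown in sterilised standard soil were sprayed one day after sowing (pre-emergence) with 1000 mg/l active ingredient in aqueous solution containing 10% DMSO. Plants were kept in a climatic chamber at 24/19° C. day/night after application. Damage was scored 0 (none) to 10 (total) after 9 or 13 days.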

Compound	melting point [°C]	AGSTE herbicidal action (damage score 0-10) [1]	AMARE herbicidal action (damage score 0-10) [1]	DIGSA herbicidal action (damage score 0-10) [1]	POATR herbicidal action (damage score 0-10) [1]	SETIT herbicidal action (damage score 0-10) [1]
Cn1nc(C(F)(F)F)c(CSC2=NOC(C)(C)C2F)c1OCC(F)(F)F (stereo not shown) [Compound No. 2.07, 4-fluoro-5,5-dimethyl-3-[1-methyl-5-(2,2,2-trifluoro-ethoxy)-3-trifluoromethyl-1H-pyrazol-4-ylmethylsulfanyl]-4,5-dihydro-isoxazole]	50 to 51					
Cc1nc(C(Cl)S(=O)(=O)C2=NOC(C)(C)C2F)n(C)n1 (racemic) [8.05, 3-[chloro-(1,3-dimethyl-1H-[1,2,4]triazol-5-yl)-methane-sulfonyl]-4-fluoro-5,5-dimethyl-4,5-dihydro-isoxazole]	140 to 141	10	10	9	8	
Cn1nc(C(F)(F)F)c(CS(=O)(=O)C2=NOC(C)(C)C2Cl)c1OCC(F)(F)F (stereo not shown) [Compound No. 2.15, 4-chloro-5,5-dimethyl-3-[1-methyl-5-(2,2,2-trifluoro-ethoxy)-3-trifluoromethyl-1H-pyrazol-4-ylmethylsulfonyl]-4,5-dihydro-isoxazole]	111 to 112	10	8	8	10	6
Cc1nc(CS(=O)(=O)C2=NOC(C)(C)C2F)n(C)n1 (stereo not shown) [8.04, 3-[(1,3-dimethyl-1H-[1,2,4]-triazol-5-yl)-methanesulfonyl]-4-fluoro-5,5-dimethyl-4,5-dihydro-isoxazole]	182 to 184					
CC1(C)ON=C(S(=O)(=O)C(F)(F)c2c(F)cccc2F)C1F (stereo not shown) [Compound No. 1.18, 3-[(2,6-difluoro-phenyl)-difluoro-methanesulfonyl]-4-fluoro-5,5-dimethyl-4,5-dihydro-isoxazole]	115 to 116	10	10	10	8	9
